What was measured:
5-HT4 receptor [1] = target: T1, 5-HT4 receptor (Cavia porcellus, UniProt O70528); assay: guinea pig distal colon longitudinal muscle-myenteric plexus, 5-HT-evoked contraction; format: cell-based
T1 construct: Longitudinal muscle-myenteric plexus preparations, approximately 3 cm long, are obtained from the distal colon region; from tissue; host or cells: guinea-pig distal colon longitudinal muscle-myenteric plexus
Procedure: Male guinea-pigs, weighing 250-400 g are used.
(§1) In some experiments, this tissue was dosed alternately with an approximately equi-effective concentration of the nicotine receptor stimulant, dimethylphenylpiperazinium (DMPP).

[2] = tested on: DMPP-evoked contractions (nicotinic receptor agonist); assay: guinea pig colon, DMPP-evoked contractions; format: cell-based; conditions: 10^−5M
Procedure: as §1

5-HT4 receptor [3] = target: T2, 5-HT4 receptor (Rattus norvegicus, UniProt Q62758); assay: rat oesophageal tunica muscularis mucosae, relaxation to 5-HT; format: cell-based
T2 construct: The inner smooth muscle tube of the muscularis mucosae is isolated and mounted for isometric tension recording; from tissue; host or cells: rat oesophageal tunica muscularis mucosae
From the text: Rat oesophageal tunica muscularis mucosae is set up according to Baxter et. al. Naunyn-Schmiedeberg's Arch.

5-HT2B receptor = target: T3, 5-HT2B receptor (Rattus norvegicus, UniProt P30994); assay: functional studies on the rat stomach fundus; format: cell-based
T3 construct: from tissue; host or cells: rat stomach fundus

5-HT1A = 5-HT1A (Homo sapiens, UniProt P08908); assay: receptor binding studies, 5-HT1A; conditions: read-out: pKd 5-HT1A (converted)
5-HT1D = 5-HT1D (Homo sapiens, UniProt P28221); assay: receptor binding studies, 5-HT1D; conditions: read-out: pKd 5-HT1D (converted)
5-HT1E = 5-HT1E (Homo sapiens, UniProt P28566); assay: receptor binding studies, 5-HT1E; conditions: read-out: pKd 5-HT1E (converted)
5-HT2A = 5-HT2A (Homo sapiens, UniProt P28223); assay: receptor binding studies, 5-HT2A; conditions: read-out: pKd 5-HT2A (converted)
5-HT2C = 5-HT2C (Homo sapiens, UniProt P28335); assay: receptor binding studies, 5-HT2C; conditions: read-out: pKd 5-HT2C (converted)
5-HT3 = 5-HT3 (Homo sapiens, UniProt P46098); assay: receptor binding studies, 5-HT3; conditions: read-out: pKd 5-HT3 (converted)
Alpha1 = assay: receptor binding studies, Alpha1
D2 = D2 (Homo sapiens, UniProt P14416); assay: receptor binding studies, D2; conditions: read-out: pKd D2 (converted)
D3 = D3 (Homo sapiens, UniProt P35462); assay: receptor binding studies, D3; conditions: read-out: pKd D3 (converted)
GABA = assay: receptor binding studies, GABA
BDZ = assay: receptor binding studies, BDZ
H1 = H1 (Homo sapiens, UniProt P35367); assay: receptor binding studies, H1; conditions: read-out: pKd H1 (converted)
Opiate kappa = Opiate kappa (Homo sapiens, UniProt P41145); assay: receptor binding studies, Opiate kappa; conditions: read-out: pKi Opiate kappa (converted)
Opiate mu = Opiate mu (Homo sapiens, UniProt P35372); assay: receptor binding studies, Opiate mu; conditions: read-out: pKi Opiate mu (converted)
Opiate delta = Opiate delta (Homo sapiens, UniProt P41143); assay: receptor binding studies, Opiate delta; conditions: read-out: pKi Opiate delta (converted)
5-HT4 receptor [4] = assay: 5-HT-induced motility in dog Heidenhain gastric pouch; format: in vivo
Procedure: Compounds are tested for inhibition in the in vivo method described in “Stimulation of canine motility by BRL 24924, a new gastric prokinetic agent”, Bermudez et al, J. Gastrointestinal Motility, 1990, 2(4), 281-286.
Dogs with previously prepared Heidenhain gastric pouches are fasted overnight.

5-HT4 receptors = assay: antagonism of 5-HT-evoked tachycardia in anaesthetised piglets; format: in vivo, piglet
From the text: All experiments were in 2-5 day old piglets in which the vagi were sectioned.

[5] = tested on: social interaction in rats; assay: social interaction test in rats (anxiolytic activity); format: in vivo, rat
Procedure: Rats (male, Sprague Dawleys, Charles River, 250-300 g) are housed in groups of eight in a holding room for 5 days. They are then housed singly in a room adjacent to the experimental room for 4 days prior to the experimental day. On the experimental day rats are administered vehicle, test compound or a benzodiazepine anxiolytic, chlordiazepoxide, p.o. in pairs (n=8-16), at 15 minute intervals beginning at 10.00 a.m. […] The box is made of white perspex 54 cm×37 cm×26 cm with a transparent perspex front side and no lid. The floor is divided up into 24 squares and the box is brightly lit (115 lux). Active social interactive behaviours (grooming, sniffing, climbing over or under, following, biting, mounting and boxing) are scored blind for the next 15 min by remote video monitoring to give total interaction scores. The number of squares crossed by each rat is also scored and summed. After the end of each test the box is carefully wiped.

T1 sequence (O70528 whole entry): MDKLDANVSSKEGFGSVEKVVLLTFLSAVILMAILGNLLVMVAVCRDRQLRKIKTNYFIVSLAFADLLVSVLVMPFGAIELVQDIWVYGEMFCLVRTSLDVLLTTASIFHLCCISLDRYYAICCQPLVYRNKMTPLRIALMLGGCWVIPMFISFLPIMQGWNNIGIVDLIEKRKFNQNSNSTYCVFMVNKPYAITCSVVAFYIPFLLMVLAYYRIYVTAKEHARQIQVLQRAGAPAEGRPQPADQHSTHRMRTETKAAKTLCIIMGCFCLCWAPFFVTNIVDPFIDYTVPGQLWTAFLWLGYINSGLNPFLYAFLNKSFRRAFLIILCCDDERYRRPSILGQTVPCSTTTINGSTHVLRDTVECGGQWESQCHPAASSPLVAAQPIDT
5-HT1D, sequence (P28221 whole entry, species assumed): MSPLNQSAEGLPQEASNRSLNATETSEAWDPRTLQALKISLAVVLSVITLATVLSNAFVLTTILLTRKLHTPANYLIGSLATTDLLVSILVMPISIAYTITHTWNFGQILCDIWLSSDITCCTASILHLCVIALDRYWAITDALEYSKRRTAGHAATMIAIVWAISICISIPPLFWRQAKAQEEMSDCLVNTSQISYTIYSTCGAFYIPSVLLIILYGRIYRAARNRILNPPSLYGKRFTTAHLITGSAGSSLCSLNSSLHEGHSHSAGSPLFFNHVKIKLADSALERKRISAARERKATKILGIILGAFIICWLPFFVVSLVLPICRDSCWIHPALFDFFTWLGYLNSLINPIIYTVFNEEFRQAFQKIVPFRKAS
5-HT2A, sequence (P28223 whole entry, species assumed): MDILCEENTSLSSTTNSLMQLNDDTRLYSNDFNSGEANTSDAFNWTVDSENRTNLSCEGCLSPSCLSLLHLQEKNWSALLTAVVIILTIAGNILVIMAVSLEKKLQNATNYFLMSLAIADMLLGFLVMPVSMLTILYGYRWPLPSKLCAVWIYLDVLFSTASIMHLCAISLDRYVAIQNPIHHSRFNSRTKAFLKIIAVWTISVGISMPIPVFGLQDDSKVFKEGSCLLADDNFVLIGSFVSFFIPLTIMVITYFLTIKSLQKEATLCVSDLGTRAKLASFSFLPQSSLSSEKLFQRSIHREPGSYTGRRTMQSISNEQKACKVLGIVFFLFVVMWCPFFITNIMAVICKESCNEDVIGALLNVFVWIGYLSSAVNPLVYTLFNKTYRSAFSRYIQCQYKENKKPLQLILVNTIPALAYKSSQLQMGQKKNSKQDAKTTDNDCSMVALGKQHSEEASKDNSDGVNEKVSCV
5-HT2C, sequence (P28335 33-458, species assumed): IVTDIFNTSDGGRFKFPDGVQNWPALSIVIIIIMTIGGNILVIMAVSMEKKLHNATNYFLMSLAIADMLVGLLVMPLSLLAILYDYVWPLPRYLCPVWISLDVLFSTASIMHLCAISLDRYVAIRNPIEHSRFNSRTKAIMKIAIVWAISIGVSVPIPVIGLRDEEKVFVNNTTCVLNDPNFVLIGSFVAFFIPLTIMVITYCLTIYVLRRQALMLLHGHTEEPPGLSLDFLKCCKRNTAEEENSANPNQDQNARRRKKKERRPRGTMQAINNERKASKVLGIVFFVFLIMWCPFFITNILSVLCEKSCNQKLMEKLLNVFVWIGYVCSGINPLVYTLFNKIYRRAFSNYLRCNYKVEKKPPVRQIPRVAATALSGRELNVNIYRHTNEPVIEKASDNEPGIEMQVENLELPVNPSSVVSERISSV
Opiate delta, sequence (P41143 whole entry): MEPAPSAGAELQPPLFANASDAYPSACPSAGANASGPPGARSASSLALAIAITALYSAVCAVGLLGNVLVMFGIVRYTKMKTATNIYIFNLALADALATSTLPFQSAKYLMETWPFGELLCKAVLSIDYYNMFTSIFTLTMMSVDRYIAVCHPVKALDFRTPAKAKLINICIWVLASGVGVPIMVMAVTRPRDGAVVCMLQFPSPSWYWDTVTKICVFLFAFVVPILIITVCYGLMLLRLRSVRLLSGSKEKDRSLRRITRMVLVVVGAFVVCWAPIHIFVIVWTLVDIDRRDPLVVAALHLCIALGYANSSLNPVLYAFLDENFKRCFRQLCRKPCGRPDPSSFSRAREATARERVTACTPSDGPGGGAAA
5-HT3, sequence (P46098 24-478, species assumed): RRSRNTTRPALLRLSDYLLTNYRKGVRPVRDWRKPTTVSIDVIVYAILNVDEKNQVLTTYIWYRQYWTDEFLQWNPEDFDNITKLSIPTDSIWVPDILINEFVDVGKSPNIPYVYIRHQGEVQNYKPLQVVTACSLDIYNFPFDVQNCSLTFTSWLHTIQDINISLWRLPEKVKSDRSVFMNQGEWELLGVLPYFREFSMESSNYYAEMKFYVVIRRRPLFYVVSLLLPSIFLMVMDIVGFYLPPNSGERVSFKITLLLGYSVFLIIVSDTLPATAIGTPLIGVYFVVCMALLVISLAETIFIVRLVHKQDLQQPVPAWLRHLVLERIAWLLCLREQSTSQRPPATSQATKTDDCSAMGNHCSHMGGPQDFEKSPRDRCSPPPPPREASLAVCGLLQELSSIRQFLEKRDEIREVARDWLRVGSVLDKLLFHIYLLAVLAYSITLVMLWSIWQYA
5-HT1A, sequence (P08908 whole entry, species assumed): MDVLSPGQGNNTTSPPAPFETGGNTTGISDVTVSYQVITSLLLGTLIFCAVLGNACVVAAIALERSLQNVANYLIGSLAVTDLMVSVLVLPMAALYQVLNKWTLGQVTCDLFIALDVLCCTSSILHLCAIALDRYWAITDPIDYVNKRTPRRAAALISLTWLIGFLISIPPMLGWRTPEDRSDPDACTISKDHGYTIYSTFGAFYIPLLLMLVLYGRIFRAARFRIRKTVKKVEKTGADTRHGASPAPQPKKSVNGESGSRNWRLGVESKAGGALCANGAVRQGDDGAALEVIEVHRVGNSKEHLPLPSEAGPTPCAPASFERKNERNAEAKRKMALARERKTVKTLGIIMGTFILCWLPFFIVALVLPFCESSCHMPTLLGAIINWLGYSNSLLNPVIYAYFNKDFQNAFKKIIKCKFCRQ
H1, sequence (P35367 whole entry): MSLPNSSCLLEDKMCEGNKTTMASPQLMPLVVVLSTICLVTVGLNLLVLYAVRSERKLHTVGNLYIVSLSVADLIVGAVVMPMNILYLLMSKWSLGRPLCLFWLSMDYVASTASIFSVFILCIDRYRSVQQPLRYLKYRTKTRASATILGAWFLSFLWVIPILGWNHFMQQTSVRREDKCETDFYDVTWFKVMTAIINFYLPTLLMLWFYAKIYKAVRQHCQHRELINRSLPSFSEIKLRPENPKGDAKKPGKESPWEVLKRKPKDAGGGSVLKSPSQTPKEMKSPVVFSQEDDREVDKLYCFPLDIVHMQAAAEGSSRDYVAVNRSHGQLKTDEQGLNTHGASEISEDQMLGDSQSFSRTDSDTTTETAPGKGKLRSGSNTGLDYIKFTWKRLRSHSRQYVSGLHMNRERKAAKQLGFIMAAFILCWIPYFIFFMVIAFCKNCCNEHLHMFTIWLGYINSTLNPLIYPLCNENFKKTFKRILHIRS
Opiate mu, sequence (P35372 whole entry): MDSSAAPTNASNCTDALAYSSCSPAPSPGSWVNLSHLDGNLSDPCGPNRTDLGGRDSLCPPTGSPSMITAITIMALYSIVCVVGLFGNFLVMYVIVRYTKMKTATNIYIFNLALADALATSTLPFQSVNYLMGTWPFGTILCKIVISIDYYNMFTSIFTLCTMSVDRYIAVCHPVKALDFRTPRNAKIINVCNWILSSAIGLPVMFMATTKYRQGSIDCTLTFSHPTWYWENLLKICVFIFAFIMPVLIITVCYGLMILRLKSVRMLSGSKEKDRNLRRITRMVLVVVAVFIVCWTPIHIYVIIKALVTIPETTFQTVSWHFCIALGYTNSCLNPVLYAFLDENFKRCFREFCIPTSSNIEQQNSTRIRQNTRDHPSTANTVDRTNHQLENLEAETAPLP
T2 sequence (Q62758 whole entry): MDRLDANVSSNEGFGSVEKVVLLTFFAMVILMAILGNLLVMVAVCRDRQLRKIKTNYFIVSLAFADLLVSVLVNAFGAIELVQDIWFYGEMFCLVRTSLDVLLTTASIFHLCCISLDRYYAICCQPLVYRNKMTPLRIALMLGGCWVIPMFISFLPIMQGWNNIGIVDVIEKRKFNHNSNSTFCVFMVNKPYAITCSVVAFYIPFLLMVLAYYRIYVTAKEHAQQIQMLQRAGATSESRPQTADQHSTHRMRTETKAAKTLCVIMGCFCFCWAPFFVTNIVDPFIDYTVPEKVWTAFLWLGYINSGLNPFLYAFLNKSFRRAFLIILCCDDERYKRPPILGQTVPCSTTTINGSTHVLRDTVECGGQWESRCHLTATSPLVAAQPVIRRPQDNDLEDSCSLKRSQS
T3 sequence (P30994 whole entry): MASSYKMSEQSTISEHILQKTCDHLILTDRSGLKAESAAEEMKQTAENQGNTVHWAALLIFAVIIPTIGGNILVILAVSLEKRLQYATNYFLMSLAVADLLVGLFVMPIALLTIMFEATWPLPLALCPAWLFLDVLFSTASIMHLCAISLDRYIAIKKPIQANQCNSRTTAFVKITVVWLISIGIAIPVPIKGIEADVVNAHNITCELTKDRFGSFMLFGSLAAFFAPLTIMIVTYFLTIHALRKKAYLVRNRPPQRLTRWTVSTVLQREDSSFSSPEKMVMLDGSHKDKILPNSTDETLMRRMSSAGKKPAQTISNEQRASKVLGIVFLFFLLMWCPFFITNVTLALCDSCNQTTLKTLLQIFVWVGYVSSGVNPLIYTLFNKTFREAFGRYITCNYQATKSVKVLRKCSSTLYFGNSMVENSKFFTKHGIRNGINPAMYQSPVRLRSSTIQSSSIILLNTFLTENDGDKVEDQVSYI

In the case of `CCCCN1CCC(CNC(=O)c2c3n(c4ccccc24)CCCO3)CC1` [SB-207266-A, N-[(1-^nbutyl-4-piperidinyl)methyl]-3,4-dihydro-2H-[1,3]oxazino[3,2-a]indole-10-carboxamide], the “contraction evoked by the 5-HT4 receptor partial agonist BIMU 1” value (5-HT4 receptor [1]) is reported as “reduced the maximum response to BIMU 1”, the “maximum response to 5-HT” value (5-HT4 receptor [1]; 3×10^−8 M and above) is reported as “reduced in a concentration-dependent manner” and the “time for recovery of responses to 5-HT upon washout” value (5-HT4 receptor [1]; highest concentrations (which reduce maximum 5-HT-evoked contractions)) is reported as at most 90 min. The DMPP-evoked contractions [2] was “unaffected”, the “type of antagonism of 5-HT response” value (5-HT4 receptor [3]) was “non-surmountable antagonist” and the “affinity for the 5-HT2B receptor” value (5-HT2B receptor) was 7.47. For the same compound, the Kd (5-HT1A) was over 10 µM, the Kd (5-HT1D) was over 10 µM and the Kd (5-HT1E) was over 10 µM. The Kd (5-HT2A) was 1.29 µM, the Kd (5-HT2C) was 2.69 µM and the Kd (5-HT3) was 1.15 µM. The “pKd Alpha1” value (Alpha1) was under 5.52, the Kd (D2) was 2.34 µM and the Kd (D3) was 2.95 µM. The “pKd GABA” value (GABA) was over 5.00, the “pKd BDZ” value (BDZ) was over 5.00 and the Kd (H1) was 3.98 µM. The Ki (Opiate kappa) was under 1 µM, the Ki (Opiate mu) was under 1 µM and the Ki (Opiate delta) was under 1 µM. The “effect on basal motility” value (5-HT4 receptor [4]; any dose) was “no effect”, the “ID50, antagonism of the contractile response to 5-HT” value (5-HT4 receptor [4]; iv) was 1.3 (Confidence Limits 0.1-14.0) ug.kg^−1 and the “ID50, antagonism of the contractile response to 5-HT” value (5-HT4 receptor [4]; po) was 9.6 (CL 0.7-128) ug.kg^−1. The “antagonism of 5-HT-evoked tachycardia” value (5-HT4 receptors; 0.1, 0.3 or 1.0 ugkg^−1 intravenously, n=2 each) was “antagonised the 5-HT-evoked tachycardia in a dose-dependent manner”, the recovery from antagonism (5-HT4 receptors; 0.3, 1.0 ugkg^−1 i.v., over the duration of the experiment) was “incomplete” and the total interaction scores ([5]; 0.01, 1, 10 mg.kg^−1, 1 h after administration) was “Significantly increased”. The “locomotion during the test” value ([5]; rat, in vivo) was “not accompanied by any alteration in locomotion”.

From patent US20050032866A1, “The use of 5ht4 receptor antagonists in the prophylaxis or treatment of certain cardiovascular conditions” (priority 2000, published 2005)
